Measured values published in patent US12473250B2, “Molecular design of new antibiotics and antibiotic adjuvants against MCR strains” (priority 2019, dated 2025).
≈ marks a conversion by molar mass, not a printed value.

Experiments:
Format in all cases: cell-based
[1] = tested on: colistin resistant MCR (+) E. Coli strains; experiment: MIC, broth microdilution, compound alone; conditions: compound alone
Procedure: (§1) MIC experiments of the antimicrobial agents were determined by a modified broth microdilution method in accordance with the Clinical and Laboratory Standards Institute (CLSI) guidelines using 96 well culture plates. In brief, serial dilutions of all plates were prepared at different concentrations (μg). The inoculum suspension was prepared by adding isolated colonies from a 18-20 hours on TSA plate into phosphate buffer (0.31 mM, pH 7.2) or in water for injection (BBraun) and adjusting the suspension to a turbidity equivalent to 0.5 McFarland Standard. Each well contained a final bacterial concentration of approximately 5×10^5 colony forming units (CFU)/mL. The plate was covered and incubated at 35° C. for 24 hours. […] For the microdilution plates, turbidity in wells can be measured at OD600 using TECAN infinite M200Pro. MIC was determined as […] concentration that gives a 99 percent inhibition.

[2] = tested on: colistin resistant MCR (+) E. Coli strains; experiment: Synergy study: colistin MIC in the presence of compound
Procedure: (§2) The MICs of the individual drugs and LC compound in combinations were determined using the broth microdilution technique as recommended by the CLSI whereby the two anti-microbial agents were added in an equal amount. (e.g.: 50 μL of Colistin: 50 μL of LC compounds). Diluted media containing compounds and antibiotics will be serially diluted 2-fold, and LC compounds and antibiotics alone or in combination will be assayed at fixed synergy concentration. In all cases, the lowest concentration at which no visible growth occurred was be recorded to be the MIC value of individual and combined antibacterial agents. The results were obtained after 24 hours of incubation.

[3] = tested on: colistin resistant MCR (−) E. Coli strains; experiment: MIC, broth microdilution, compound alone
Procedure: as §1

[4] = tested on: colistin resistant MCR (−) E. Coli strains; experiment: Synergy study: colistin MIC in the presence of compound
Procedure: as §2

[5] = strain 7028444207 (Table 1b), MCR (+)

| SMILES | MIC ([1]; strain 6075066346, MCR (+)) | MIC ([1]; strain 6083655967, MCR (+)) | MIC ([1]; strain 6103645107, MCR (+)) | MIC ([1]; strain 6123520276, MCR (+)) | MIC ([1]; strain 7013177695, MCR (+)) | MIC ([1]; strain 7023436560, MCR (+)) | MIC [1, 5] | MIC ([1]; strain 7103531927, MCR (+)) | MIC ([3]; strain 6083672926, MCR (−)) | MIC ([3]; strain 7023446108, MCR (−)) | MIC ([3]; strain 7033607097, MCR (−)) | further results |
| --- | --- | --- | --- | --- | --- | --- | --- | --- | --- | --- | --- | --- |
| CCN(CC)CCCCOc1ccc(C2COc3c(ccc4c3C=CC(C)(C)O4)C2)c(OCCCCN(CC)CC)c1 (centres unmarked) [LC105] | 25 µg/mL (≈ 43.2 µM) | 25 µg/mL (≈ 43.2 µM) | 25 µg/mL (≈ 43.2 µM) | 25 µg/mL (≈ 43.2 µM) | 25 µg/mL (≈ 43.2 µM) | 25 µg/mL (≈ 43.2 µM) | 25 µg/mL (≈ 43.2 µM) | – | – | – | – | Colistin MIC in the presence of the compound ([2]; strain 6075066346, MCR(+), compound at 12.5 μg): 1.56 µg/mL; Colistin MIC in the presence of the compound ([2]; strain 6083655967, MCR(+), compound at 12.5 μg): 0.78 µg/mL; Colistin MIC in the presence of the compound ([2]; strain 6103645107, MCR(+), compound at 12.5 μg): 1.56 µg/mL; Colistin MIC in the presence of the compound ([2]; strain 6123520276, MCR(+), compound at 12.5 μg): 1.56 µg/mL; Colistin MIC in the presence of the compound ([2]; strain 7013177695, MCR(+), compound at 12.5 μg): 0.78 µg/mL; Colistin MIC in the presence of the compound ([2]; strain 7023436560, MCR(+), compound at 12.5 μg): 1.56 µg/mL; Colistin MIC in the presence of the compound ([2]; strain 7023444207, MCR(+), compound at 12.5 μg): 0.78 µg/mL |
| CCN(CC)CCCCOc1ccc(/C=C/C(=O)c2ccc(OCCCCN(CC)CC)cc2O)cc1 [LC107] | >100 µg/mL | >100 µg/mL | >100 µg/mL | >100 µg/mL | >100 µg/mL | >100 µg/mL | >100 µg/mL | – | – | – | – | Colistin MIC in the presence of the compound ([2]; strain 6075066346, MCR(+), compound at 10 μg (Table 2a: 10 ug/ml)): 3.125 µg/mL; Colistin MIC in the presence of the compound ([2]; strain 6083655967, MCR(+), compound at 10 μg (Table 2a: 10 ug/ml)): 3.125 µg/mL; Colistin MIC in the presence of the compound ([2]; strain 6103645107, MCR(+), compound at 10 μg (Table 2a: 10 ug/ml)): 3.125 µg/mL; Colistin MIC in the presence of the compound ([2]; strain 6123520276, MCR(+), compound at 10 μg (Table 2a: 10 ug/ml)): 3.125 µg/mL; Colistin MIC in the presence of the compound ([2]; strain 7013177695, MCR(+), compound at 10 μg (Table 2a: 10 ug/ml)): 3.125 µg/mL; Colistin MIC in the presence of the compound ([2]; strain 7023436560, MCR(+), compound at 10 μg (Table 2a: 10 ug/ml)): 6.25 µg/mL; Colistin MIC in the presence of the compound ([2]; strain 7023444207, MCR(+), compound at 10 μg (Table 2a: 10 ug/ml)): 6.25 µg/mL |
| CC(C)=CCc1c(OCCN(C)CCCN(C)C)ccc(C(=O)/C=C/c2ccc(OCCN(C)CCCN(C)C)cc2)c1O [LC140] | 12.5 µg/mL (≈ 20.5 µM) | 12.5 µg/mL (≈ 20.5 µM) | – | – | – | – | – | 25 µg/mL (≈ 41.1 µM) | 12.5 µg/mL (≈ 20.5 µM) | 12.5 µg/mL (≈ 20.5 µM) | 6.25 µg/mL (≈ 10.3 µM) | Colistin MIC in the presence of the compound ([4]; strain 6083672926, MCR(−), compound at 2 μg): 1.56 µg/mL; Colistin MIC in the presence of the compound ([4]; strain 7023446108, MCR(−), compound at 2 μg): 1.56 µg/mL; Colistin MIC in the presence of the compound ([4]; strain 7033607097, MCR(−), compound at 2 μg): 1.56 µg/mL |
| CC(C)=CCc1c(OCCNCCN)ccc(C(=O)/C=C/c2ccc(OCCNCCN)cc2)c1O [LC143] | 6.25 µg/mL (≈ 12.6 µM) | 6.25 µg/mL (≈ 12.6 µM) | – | – | – | – | – | 12.5 µg/mL (≈ 25.2 µM) | 12.5 µg/mL (≈ 25.2 µM) | 6.25 µg/mL (≈ 12.6 µM) | 6.25 µg/mL (≈ 12.6 µM) | Colistin MIC in the presence of the compound ([4]; strain 6083672926, MCR(−), compound at 5 μg (Table 2a: 5 ug/ml)): ≤0.0975 µg/mL; Colistin MIC in the presence of the compound ([4]; strain 7023446108, MCR(−), compound at 5 μg (Table 2a: 5 ug/ml)): ≤0.0975 µg/mL; Colistin MIC in the presence of the compound ([4]; strain 7033607097, MCR(−), compound at 5 μg (Table 2a: 5 ug/ml)): ≤0.0975 µg/mL |
| Cc1cc(OCCCCN(Cc2ccccn2)Cc2ccccn2)cc(OCCCCN(Cc2ccccn2)Cc2ccccn2)c1 [Orc-DPA] | – | – | – | – | – | – | – | – | – | – | – | concentration at which the compound shows synergy with colistin ([2]; against mcr-1 bacteria): 50 µg/mL |
